pIC50: −log10 of the molar value.
These compounds were tested against Active Human ERK2 (hERK2) (Homo sapiens (Human), UniProt P28482) (assay: Active Human ERK2 (hERK2) Activity Assay (IMAP-FP)). Conditions: phosphorylated active hERK2, 30 μM ATP; average; read-out: ERK 2 Human average IC50.
Format: biochemical
How it was run: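 Phosphorylation by activated human ERK2 (0.5 nM) at 30 μM ATP, peptide substrate 900 nM unlabeled with 80 nM labeled, proceeds 60 min. IMAP beads stop the reaction; after 60 min equilibration, product is measured by fluorescence polarization.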

Active Human ERK2 (hERK2), sequence (P28482 whole entry): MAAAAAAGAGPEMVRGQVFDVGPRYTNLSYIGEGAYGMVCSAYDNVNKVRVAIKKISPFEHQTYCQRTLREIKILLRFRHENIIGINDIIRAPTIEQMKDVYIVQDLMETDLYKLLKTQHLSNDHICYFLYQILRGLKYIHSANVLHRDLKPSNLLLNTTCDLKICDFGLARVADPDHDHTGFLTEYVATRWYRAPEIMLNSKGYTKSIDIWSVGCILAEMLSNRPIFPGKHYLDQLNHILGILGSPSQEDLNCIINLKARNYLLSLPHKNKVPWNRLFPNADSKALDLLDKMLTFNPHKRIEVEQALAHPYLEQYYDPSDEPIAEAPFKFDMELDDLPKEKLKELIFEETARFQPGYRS

Compound | pIC50
Cc1cc(-c2n[nH]c3cc(NC(=O)NCC4CCO4)ncc23)ccn1 (centres unmarked) [Example 484] | 6.42
Cc1cc(-c2n[nH]c3cc(NC(=O)NCc4ncc(Cl)cc4F)ncc23)ccn1 [Example 487] | 7.99
Cc1cc(-c2n[nH]c3cc(NC(=O)NCc4csc5ccc(Cl)cc45)ncc23)ccn1 [Example 488] | 8.23
Cc1cc(-c2n[nH]c3cc(NC(=O)N[C@@H]4c5ccccc5C[C@H]4N(C)C)ncc23)ccn1 [Example 490] | 7.95
Cc1cc(-c2n[nH]c3cc(NC(=O)NCc4cnccc4C)ncc23)ccn1 [Example 491] | 8.85
Cc1cc(-c2n[nH]c3cc(NC(=O)Nc4noc5cccnc45)ncc23)ccn1 [Example 493] | 9.37
COc1ncccc1CNC(=O)Nc1cc2[nH]nc(-c3ccnc(C)c3)c2cn1 [Example 495] | 9.22
Cc1cc(-c2n[nH]c3cc(NC(=O)NC(C)c4cscn4)ncc23)ccn1 (centres unmarked) [Example 496] | 8.85
Cc1ccnc(C(C)NC(=O)Nc2cc3[nH]nc(-c4ccnc(C)c4)c3cn2)c1 (centres unmarked) [Example 498] | 8.55
Cc1cc(-c2n[nH]c3cc(NC(=O)NC4CNc5ccccc5C4)ncc23)ccn1 (centres unmarked) [Example 501] | 9.02
Cc1cc(-c2n[nH]c3cc(NC(=O)NC4CCc5nc(N)sc5C4)ncc23)ccn1 (centres unmarked) [Example 504] | 8.87
Cc1cc(-c2n[nH]c3cc(NC(=O)NC4CCc5cccnc5C4)ncc23)ccn1 (centres unmarked) [Example 505] | 9.06
Cc1cc(-c2n[nH]c3cc(NC(=O)NC4CCc5[nH]ncc5C4)ncc23)ccn1 (centres unmarked) [Example 506] | 9.09
Cc1cc(-c2n[nH]c3cc(NC(=O)NC4CCc5[nH]nc(C)c5C4)ncc23)ccn1 (centres unmarked) [Example 507] | 9.12
Cc1cc(-c2n[nH]c3cc(NC(=O)NCc4ccc[n+]([O-])c4)ncc23)ccn1 [Example 508] | 7.94
Cc1cc(-c2n[nH]c3cc(NC(=O)NC(c4cccnc4)C(F)F)ncc23)ccn1 (centres unmarked) [Example 509] | 8.51
Cc1cc(-c2n[nH]c3cc(NC(=O)NCc4cnccc4C(F)(F)F)ncc23)ccn1 [Example 510] | 8.44
Cc1cc(-c2n[nH]c3cc(NC(=O)NCc4ccc(F)cc4C(F)(F)F)ncc23)ccn1 [Example 512] | 8.53
Cc1cc(-c2n[nH]c3cc(NC(=O)NCc4c(C)cc(Cl)cc4Cl)ncc23)ccn1 [Example 514] | 8.54
Cc1cc(-c2n[nH]c3cc(NC(=O)NCc4ccc(Cl)cc4C)ncc23)ccn1 [Example 515] | 8.61

The remaining lines, values ahead:

pIC50 | Compound
7.96 | Cc1cc(-c2n[nH]c3cc(NC(=O)N[C@@H](CN(C)C)c4ccccc4)ncc23)ccn1 [Example 481]
9.54 | Cc1cc(-c2n[nH]c3cc(NC(=O)N[C@H](CN(C)C)c4ccccc4)ncc23)ccn1 [Example 482]
9.82 | Cc1cc(-c2n[nH]c3cc(NC(=O)N[C@H](CN)c4ccccc4)ncc23)ccn1 [Example 483]
9.51 | COc1cccc(F)c1CNC(=O)Nc1cc2[nH]nc(-c3ccnc(C)c3)c2cn1 [Example 485]
7.63 | COC[C@H](NC(=O)Nc1cc2[nH]nc(-c3ccc(F)cc3)c2cn1)c1ccccn1 [Example 486]
7.59 | Cc1cc(-c2n[nH]c3cc(NC(=O)NC4(CN)CCc5cc(F)ccc54)ncc23)ccn1 (centres unmarked) [Example 492]
8.36 | COC[C@H](Cc1ccccc1)NC(=O)Nc1cc2[nH]nc(-c3ccnc(C)c3)c2cn1 [Example 494]
8.81 | Cc1cc(-c2n[nH]c3cc(NC(=O)NC(C)c4ccno4)ncc23)ccn1 (centres unmarked) [Example 497]
9.11 | COC[C@@H](NC(=O)Nc1cc2[nH]nc(-c3ccc(F)cc3)c2cn1)c1ccccn1 [Example 500]
8.88 | Cc1cc(-c2n[nH]c3cc(NC(=O)NCc4csc5ccccc45)ncc23)ccn1 [Example 502]
9.07 | Cc1cc(-c2n[nH]c3cc(NC(=O)N[C@H](C)c4ccc(F)cn4)ncc23)ccn1 [Example 503]
8.81 | Cc1cc(-c2n[nH]c3cc(NC(=O)NCc4ccc(F)cc4F)ncc23)ccn1 [Example 513]

Source: US9023865B2, “Compounds that are ERK inhibitors” (Merck Sharp & Dohme Corp., priority 2011, dated 2015)
